{"source": "PubChem BioAssay AID588593", "about": "(Sanford-Burnham Center for Chemical Genomics, 2011)", "note": "Values joined by “and” are separate entries in the source; they are usually repeats but may differ in a detail not shown here. Equal entries are not always repeated. Active and inactive are the calls of the source. No rule for the calls is given here.", "data": [{"biological_target": "glucose-6-phosphate dehydrogenase-6-phosphogluconolactonase (Plasmodium falciparum 3D7)", "assay": "PfG6PD enzyme inhibitors, kinetic NADPH readout, SAR follow-up, orthogonal assay, biochemical, kinetic NADPH detection (AID 588593)", "conditions": "recombinant PfG6PD-6PGL", "values": [{"smiles": "Cc1cccc(C(=O)Nc2nnc(S(=O)(=O)N3CCCc4ccccc43)s2)c1", "IC50": "> 80 µM (inactive)"}, {"smiles": "CCN1CCC[C@H]1CNC(=O)c1ccc2c(c1)NC(=O)/C(=C/c1ccccc1F)S2", "IC50": "9.49 µM"}, {"smiles": "O=C(Nc1nnc(S(=O)(=O)N2CCCCCC2)s1)C1CCCCC1", "IC50": "38.5 µM"}, {"smiles": "CCN1CCCC1CNC(=O)c1ccc2c(c1)NC(=O)CS2", "note": "(configuration not stated)", "IC50": "> 80 µM (inactive)"}, {"smiles": "CN(C)CCNC(=O)c1ccc2c(c1)NC(=O)/C(=C\\c1cccc(Cl)c1)S2", "IC50": "43.6 µM"}, {"smiles": "Cc1ccccc1C(=O)Nc1nnc(S(=O)(=O)N2CCCCCC2)s1", "IC50": "11.6 µM"}, {"smiles": "O=C(Nc1nnc(S(=O)(=O)N2CCCCC2)s1)c1cccc(F)c1", "IC50": "34 µM"}, {"smiles": "CC1Cc2ccccc2N1S(=O)(=O)c1nnc(NC(=O)c2cccc(Br)c2)s1", "note": "(configuration not stated)", "IC50": "> 80 µM (inactive)"}, {"smiles": "O=C1Nc2cc(C(=O)NCc3ccccc3)ccc2S/C1=C\\c1ccccc1F", "IC50": "> 80 µM (inactive)"}, {"smiles": "O=C(Nc1nnc(S(=O)(=O)N2CCCCCC2)s1)c1cccc(Cl)c1", "IC50": "20.3 µM"}, {"smiles": "CCN(CCNC(=O)c1ccc2c(c1)NC(=O)c1ccccc1S2)c1ccccc1", "IC50": "> 80 µM (inactive)"}, {"smiles": "O=C1COc2ccc(C(=O)NCCN3CCOCC3)cc2N1", "IC50": "> 80 µM (inactive)"}, {"smiles": "COc1ccc(/C=C2/Sc3ccc(C(=O)NCCN(C)C)cc3NC2=O)cc1", "IC50": "> 80 µM (inactive)"}, {"smiles": "Cc1ccc(C(=O)Nc2nnc(S(=O)(=O)N3c4ccccc4CC3C)s2)cc1", "note": "(configuration not stated)", "IC50": "> 80 µM (inactive)"}, {"smiles": "CCOc1ccc(C(=O)Nc2nnc(S(=O)(=O)N3CCCCCC3)s2)cc1", "IC50": "23.8 µM"}, {"smiles": "CCN1CCCC1CNC(=O)c1ccc2c(c1)N(Cc1cccc(F)c1)C(=O)c1ccccc1S2", "note": "(configuration not stated)", "IC50": "> 80 µM (inactive)"}, {"smiles": "CCN1CCCC1CNC(=O)c1ccc2c(c1)NC(=O)/C(=C/c1ccccc1OC)S2", "note": "(configuration not stated)", "IC50": "11.3 µM"}, {"smiles": "COc1ccc(C(=O)Nc2nnc(S(=O)(=O)N3CCCCCC3)s2)cc1OC", "IC50": "5.48 µM"}, {"smiles": "CCN1CCCC1CNC(=O)c1ccc2c(c1)NC(=O)c1ccccc1S2", "note": "(configuration not stated)", "IC50": "8.01 µM and 6.42 µM"}, {"smiles": "O=C1Nc2cc(C(=O)NCCN3CCCCC3)ccc2S/C1=C\\c1ccccc1F", "IC50": "24 µM"}, {"smiles": "CCN(CC)CCNC(=O)c1ccc2c(c1)NC(=O)/C(=C\\c1ccccc1Cl)S2", "IC50": "44.9 µM"}, {"smiles": "Cc1ccccc1C(=O)Nc1nnc(S(=O)(=O)N2CCCc3ccccc32)s1", "IC50": "46.9 µM"}, {"smiles": "O=C1Nc2cc(C(=O)NCCN3CCCC3)ccc2S/C1=C/c1ccccc1Cl", "IC50": "> 80 µM (inactive)"}, {"smiles": "CCN(CCNC(=O)c1ccc2c(c1)N(CC)C(=O)c1ccccc1S2)c1ccccc1", "IC50": "44.6 µM"}, {"smiles": "CCN(CC)CCNC(=O)c1ccc2c(c1)NC(=O)/C(=C\\c1ccccc1F)S2", "IC50": "9.37 µM"}, {"smiles": "O=C(NCCN1CCCC1)c1ccc2c(c1)NC(=O)c1ccccc1S2", "IC50": "60.5 µM"}, {"smiles": "CN(C)CCNC(=O)c1ccc2c(c1)NC(=O)c1ccccc1O2", "IC50": "> 80 µM (inactive)"}, {"smiles": "CCN1CCCC1CNC(=O)c1ccc2c(c1)NC(=O)/C(=C/c1ccccc1C)S2", "note": "(configuration not stated)", "IC50": "5.01 µM"}, {"smiles": "O=C1Nc2cc(C(=O)NCCN3CCCCCC3)ccc2S/C1=C/c1ccccc1F", "IC50": "11 µM"}, {"smiles": "Cc1cccc(C(=O)Nc2nnc(S(=O)(=O)N3CCCCCC3)s2)c1", "IC50": "5.79 µM"}, {"smiles": "CCN(CC)CCNC(=O)c1ccc2c(c1)NC(=O)c1ccccc1S2", "IC50": "41.8 µM and 57.4 µM"}, {"smiles": "CCN1CCCC1CNC(=O)c1ccc2c(c1)N(Cc1ccc(C(F)(F)F)cc1)C(=O)c1ccccc1S2", "note": "(configuration not stated)", "IC50": "> 80 µM (inactive)"}, {"smiles": "O=C(Nc1nnc(S(=O)(=O)N2CCCc3ccccc32)s1)c1cccc(F)c1", "IC50": "15.9 µM"}, {"smiles": "O=C1COc2ccc(C(=O)NCCN3CCCC3)cc2N1", "IC50": "> 80 µM (inactive)"}, {"smiles": "COc1cccc(/C=C2/Sc3ccc(C(=O)NCCN4CCCCCC4)cc3NC2=O)c1", "IC50": "58.5 µM"}, {"smiles": "Cc1ccc(C(=O)Nc2nnc(S(=O)(=O)N3CCCc4ccccc43)s2)cc1", "IC50": "54.6 µM"}, {"smiles": "CCC(C)N(CCNC(=O)c1ccc2c(c1)NC(=O)c1ccccc1S2)C1CCCCC1", "note": "(configuration not stated)", "IC50": "4.02 µM"}, {"smiles": "CCN(CC)CCNC(=O)c1ccc2c(c1)NC(=O)/C(=C/c1ccccc1)S2", "IC50": "18.4 µM"}, {"smiles": "COc1ccc(/C=C2/Sc3ccc(C(=O)NCCN4CCCC4)cc3NC2=O)cc1", "IC50": "> 80 µM (inactive)"}, {"smiles": "COc1ccccc1C(=O)Nc1nnc(S(=O)(=O)N2CCCCCC2)s1", "IC50": "10 µM"}, {"smiles": "COc1ccc(/C=C2/Sc3ccc(C(=O)NCCN4CCCCCC4)cc3NC2=O)cc1", "IC50": "> 80 µM (inactive)"}, {"smiles": "O=C(Nc1nnc(S(=O)(=O)N2CCCCCC2)s1)c1cccc(F)c1", "IC50": "18.1 µM"}, {"smiles": "O=C(Nc1nnc(S(=O)(=O)N2CCCCCC2)s1)c1ccccc1F", "IC50": "35.2 µM"}, {"smiles": "COc1cccc(/C=C2/Sc3ccc(C(=O)NCCN4CCCC4)cc3NC2=O)c1", "IC50": "35.3 µM"}, {"smiles": "CCCN(CCC)CCNC(=O)c1ccc2c(c1)NC(=O)/C(=C/c1ccccc1)S2", "IC50": "27.2 µM"}, {"smiles": "CCN(CC)CCNC(=O)c1ccc2c(c1)N(Cc1ccc(C)cc1)C(=O)c1ccccc1S2", "IC50": "> 80 µM (inactive)"}, {"smiles": "O=C(Nc1nnc(S(=O)(=O)N2CCCCCC2)s1)c1ccccc1", "IC50": "13.3 µM"}, {"smiles": "O=C(Nc1nnc(S(=O)(=O)N2CCCCCC2)s1)c1ccco1", "IC50": "33.3 µM"}, {"smiles": "CCN1CCCC1CNC(=O)c1ccc2c(c1)N(Cc1ccccc1F)C(=O)c1ccccc1S2", "note": "(configuration not stated)", "IC50": "> 80 µM (inactive)"}, {"smiles": "CCCN(CCC)CCNC(=O)c1ccc2c(c1)NC(=O)/C(=C\\c1ccc(C)cc1)S2", "IC50": "45.9 µM"}, {"smiles": "Cc1cccc(C(=O)Nc2nnc(S(=O)(=O)N3CCOCC3)s2)c1", "IC50": "24.2 µM"}, {"smiles": "Cc1cccc(/C=C2/Sc3ccc(C(=O)NCCN4CCCC4)cc3NC2=O)c1", "IC50": "8.77 µM"}, {"smiles": "O=C(NCCN1CCCCC1)c1ccc2c(c1)NC(=O)c1ccccc1O2", "IC50": "31.6 µM"}, {"smiles": "O=C(NCCN1CCCC1)c1ccc2c(c1)NC(=O)c1ccccc1O2", "IC50": "35.6 µM"}, {"smiles": "CCN(CC)CCNC(=O)c1ccc2c(c1)N(Cc1cc(C)ccc1C)C(=O)c1ccccc1S2", "IC50": "> 80 µM (inactive)"}, {"smiles": "CCN(CC)CCNC(=O)c1ccc2c(c1)NC(=O)/C(=C\\c1ccc(OC)cc1)S2", "IC50": "12.5 µM"}, {"smiles": "Cc1ccc(C(=O)Nc2nnc(S(=O)(=O)N3CCCCCC3)s2)cc1", "IC50": "10.7 µM"}, {"smiles": "CCN(CC)CCNC(=O)c1ccc2c(c1)N(Cc1ccccc1Cl)C(=O)c1ccccc1S2", "IC50": "> 80 µM (inactive)"}, {"smiles": "CCN(CC)CCNC(=O)c1ccc2c(c1)NC(=O)CO2", "IC50": "> 80 µM (inactive)"}, {"smiles": "O=C1Nc2cc(C(=O)NCCN3CCCCCC3)ccc2S/C1=C/c1ccccc1Cl", "IC50": "> 80 µM (inactive)"}, {"smiles": "CCN1CCCC1CNC(=O)c1ccc2c(c1)N(Cc1ccccc1Cl)C(=O)c1ccccc1S2", "note": "(configuration not stated)", "IC50": "> 80 µM (inactive)"}, {"smiles": "CN(CCNC(=O)c1ccc2c(c1)NC(=O)c1ccccc1S2)C1CCCCC1", "IC50": "28.6 µM"}, {"smiles": "CCN(CC)CCNC(=O)c1ccc2c(c1)NC(=O)/C(=C\\c1ccc(OC)c(OC)c1)S2", "IC50": "24.5 µM"}, {"smiles": "O=C1COc2ccc(C(=O)NCCN3CCCCC3)cc2N1", "IC50": "77 µM"}, {"smiles": "CCN1CCCC1CNC(=O)c1ccc2c(c1)NC(=O)/C(=C/c1cccc3ccccc13)S2", "note": "(configuration not stated)", "IC50": "4.2 µM"}, {"smiles": "CC1Cc2ccccc2N1S(=O)(=O)c1nnc(NC(=O)c2cccc(F)c2)s1", "note": "(configuration not stated)", "IC50": "30.8 µM"}, {"smiles": "O=C(Nc1nnc(S(=O)(=O)N2CCOCC2)s1)c1cccc(F)c1", "IC50": "51.9 µM"}, {"smiles": "CN(C)CCNC(=O)c1ccc2c(c1)NC(=O)CO2", "IC50": "> 80 µM (inactive)"}, {"smiles": "CCN(CCNC(=O)c1ccc2c(c1)N(Cc1cc(C)ccc1C)C(=O)c1ccccc1S2)c1ccccc1", "IC50": "48.2 µM"}, {"smiles": "CCN1CCCC1CNC(=O)c1ccc2c(c1)NC(=O)/C(=C\\c1ccccc1Cl)S2", "note": "(configuration not stated)", "IC50": "3.32 µM"}, {"smiles": "CN1CCN(C(=O)c2ccc3c(c2)NC(=O)/C(=C/c2ccccc2Cl)S3)CC1", "IC50": "> 80 µM (inactive)"}, {"smiles": "O=C(Nc1nnc(S(=O)(=O)N2CCCCCC2)s1)c1ccc(F)cc1", "IC50": "43.9 µM"}, {"smiles": "CN1CCCC1CCNC(=O)c1ccc2c(c1)NC(=O)/C(=C/c1ccccc1F)S2", "note": "(configuration not stated)", "IC50": "45.2 µM"}, {"smiles": "CCN1CCCC1CNC(=O)c1ccc2c(c1)NC(=O)CO2", "note": "(configuration not stated)", "IC50": "41.4 µM"}, {"smiles": "COc1cccc(C(=O)Nc2nnc(S(=O)(=O)N3CCCCCC3)s2)c1", "IC50": "31.6 µM"}, {"smiles": "CCN1CCCC1CNC(=O)c1ccc2c(c1)NC(=O)c1ccccc1O2", "note": "(configuration not stated)", "IC50": "11.9 µM"}, {"smiles": "Cc1cccc(C(=O)Nc2nnc(S(=O)(=O)N3c4ccccc4CC3C)s2)c1", "note": "(configuration not stated)", "IC50": "> 80 µM (inactive)"}, {"smiles": "CCN1CCCC1CNC(=O)c1ccc2c(c1)NC(=O)/C(=C\\c1ccccc1F)S2", "note": "(configuration not stated)", "IC50": "3.17 µM"}, {"smiles": "Cc1ccc(CN2C(=O)c3ccccc3Sc3ccc(C(=O)NCCN(C)C)cc32)cc1", "IC50": "> 80 µM (inactive)"}, {"smiles": "CCN1CCC[C@@H]1CNC(=O)c1ccc2c(c1)NC(=O)/C(=C/c1ccccc1F)S2", "IC50": "30.8 µM"}, {"smiles": "O=C1Nc2cc(C(=O)NCCN3CCOCC3)ccc2S/C1=C\\c1ccccc1F", "IC50": "> 80 µM (inactive)"}, {"smiles": "COc1ccc(C(=O)Nc2nnc(S(=O)(=O)N3CCCCCC3)s2)cc1", "IC50": "47.2 µM"}, {"smiles": "Cc1cccc(C(=O)Nc2nnc(S(=O)(=O)N3CCC(C)CC3)s2)c1", "IC50": "9.09 µM"}, {"smiles": "CCN(CC)CCNC(=O)c1ccc2c(c1)NC(=O)c1ccccc1O2", "IC50": "62.3 µM"}, {"smiles": "O=C(NCCN1CCOCC1)c1ccc2c(c1)NC(=O)c1ccccc1O2", "IC50": "> 80 µM (inactive)"}, {"smiles": "O=C(Nc1nnc(S(=O)(=O)N2CCCCCC2)s1)c1cccc(Br)c1", "IC50": "7.09 µM"}, {"smiles": "Cc1cccc(N2CCN(CCNC(=O)c3ccc4c(c3)NC(=O)c3ccccc3S4)CC2)c1C", "IC50": "47.9 µM"}]}]}
